From patent US9415096B2 (priority 2007, dated 2016)
Ends that are not written are not given here.

Columns and labels:
PK-8 cells = assay: Cytotoxicity test (chromium release assay) of peptide-induced killer T cells against PK-8; conditions: killer T cells from breast cancer patients induced with the peptide; PK-8 HLA-A2 negative, FOXM1 positive
panc-1 cells = assay: Cytotoxicity test (chromium release assay) of peptide-induced killer T cells against panc-1; conditions: for HLA-A2 restricted and FOXM1-specific cytotoxic activity of induced killer T cells: chromium release assay, panc-1 (HLA-A2 positive) versus PK-8 (HLA-A2 negative); for cytotoxic activity against panc-1 cells: killer T cells from breast cancer patients induced with the peptide, panc-1 HLA-A2 positive, FOXM1-expressing

Sequence | cytotoxic activity against PK-8 cells (PK-8 cells) | HLA-A2 restricted and FOXM1-specific cytotoxic activity of induced killer T cells (panc-1 cells) | cytotoxic activity against panc-1 cells (panc-1 cells)
SLVLQPSVKV [FOXM1 373-382, SLVLQPSVKV] | did not show cytotoxic activity | HLA-A2 restricted and FOXM1-specific cytotoxic activity was observed | strong cytotoxic activity
GLMDLSTTPL [FOXM1 640-649, GLMDLSTTPL] | did not show cytotoxic activity | HLA-A2 restricted and FOXM1-specific cytotoxic activity was observed | strong cytotoxic activity
YLVPIQFPV [FOXM1 362-370, YLVPIQFPV] | did not show cytotoxic activity | HLA-A2 restricted and FOXM1-specific cytotoxic activity was observed | strong cytotoxic activity
